Holding throughout (assay): DTP human tumour cell line panel, 48 h
Experiment [1] concerns OVCAR-8.
The subject of experiment [2] is SK-MEL-28.
For experiment [3], the system named is UO-31.
Experiment [4] concerns KM12.
In experiment [5] the test system is DLD-1.
Experiment [6] concerns HCT-15.
Experiment [7] relates to SNB-19.
The test system of experiment [8] is RXF 393.
Experiment [9] concerns SF-268.
The subject of experiment [10] is SK-OV-3.
Experiment [11] has as its system IGROV-1.
Experiment [12] relates to HCC 2998.
Experiment [13] relates to HOP-92.
Experiment [14] has as its system M19-MEL.
Experiment [15] concerns RPMI-8226.
In experiment [16] the test system is NCI-H522.
Experiment [17] relates to Hs-578T.
The subject of experiment [18] is T47D.
For experiment [19], the system named is PC-3.
Experiment [20] relates to NCI/ADR-RES.

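96-well plates; 48 h exposure; 5 concentrations. Endpoints by linear interpolation between flanking doses. Not reached: highest tested concentration assigned. GI50 is the concentration that inhibits growth by half.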 Activity calls are given as the source filed them. Cut-off read from the data, not from the text of the source: active = GI50 up to about 1.1 µM and inactive = higher.

`N=C1c2ccccc2C(=O)c2c(NCCNCCO)ccc(O)c21`: the GI50 (as a rule, the concentration that inhibits growth by half) is 4.72 µM (inactive) in [1]; 8.15 µM (inactive) in experiment [2]; 7.83 µM (inactive) in [3]; 6.92 µM (inactive) in experiment [4]; 5.92 µM (inactive) in experiment [5]; 25.5 µM in experiment [6]. In addition, the GI50 in experiment [7] is 8.24 µM (inactive); in experiment [8] it was 4.66 µM (inactive); in experiment [9] it was 3.3 µM (inactive); in experiment [10], 6.55 µM (inactive); in experiment [11], 5.38 µM (inactive); in experiment [12] it was 9.42 µM (inactive). Moreover, the GI50 was 24.9 µM (inactive) in experiment [13], 5.55 µM (inactive) in experiment [14], 7.19 µM (inactive) in [15] and 3.4 µM (inactive) in experiment [16].

For the compound `COc1c(O)c2ccccc2c2cc(O)ccc12`, the GI50 was 3.88 µM (inactive) in experiment [1]; 4.91 µM (inactive) in [2]; 4.04 µM (inactive) in experiment [3]; 11.6 µM (inactive) in [4]; 8.79 µM (inactive) in experiment [5]; 6.34 µM in experiment [6]. In addition, the GI50 in experiment [7] is 13.6 µM (inactive); in experiment [8] it was 9.93 µM (inactive); in experiment [9], 10.8 µM (inactive); in [17], 17.4 µM (inactive); in [10], 20.5 µM (inactive); in [11], 9.57 µM (inactive). Further, the GI50 in experiment [18] was 13.5 µM (inactive); in experiment [12], 17.3 µM (inactive); in [13], 10.6 µM (inactive); in experiment [14] it was 2.01 µM (inactive); in [19], 16.6 µM (inactive); in experiment [20], 6.98 µM (inactive). The GI50 was 7.21 µM (inactive) in [15] and 5.4 µM (inactive) in experiment [16].

For `CCN(CC)CCCN(c1cc(OC)cc2nccnc12)S(=O)(=O)c1ccc(C)cc1`, the GI50 is > 100 µM (inactive) in experiment [1]; > 100 µM (inactive) in [2]; > 100 µM (inactive) in experiment [3]; > 100 µM (inactive) in [4]; > 100 µM (inactive) in [5]; > 100 µM in [6]. For the same compound, the GI50 in experiment [7] was > 100 µM (inactive); in experiment [8], 41.1 µM (inactive); in experiment [9], > 100 µM (inactive); in [10], > 100 µM (inactive); in experiment [11], > 100 µM (inactive); in experiment [12], > 100 µM (inactive). Further, the GI50 in experiment [13], in experiment [14], in experiment [15] and in experiment [16] was > 100 µM (inactive) in each case.

In the case of `C/C(=N/NC(=O)C[n+]1ccccc1)C(CN(CC(C)C)CC(C)C)C(=O)Nc1ccc(C)cc1C` (stereo unspecified), the GI50 in experiment [1] is > 100 µM (inactive); in experiment [2], > 100 µM (inactive); in experiment [3], 15.1 µM (inactive); in experiment [5], > 100 µM (inactive); in experiment [7], 26.7 µM (inactive); in experiment [8], 61.2 µM (inactive). Moreover, the GI50 in experiment [9] was > 100 µM (inactive); in experiment [10], > 100 µM (inactive); in experiment [11], > 100 µM (inactive); in experiment [12], > 100 µM (inactive); in experiment [13], 43.3 µM (inactive); in experiment [14], > 100 µM (inactive). Further, the figures for the GI50 in experiment [15] and in experiment [16] were 68.1 µM (inactive) and 40.8 µM (inactive), respectively.

As for `O=c1/c(=C/c2ccccc2[N+](=O)[O-])sc2nnc(-c3ccco3)n12`, the GI50 was 17 µM (inactive) in [1]; 21.8 µM (inactive) in [2]; 30.5 µM (inactive) in [3]; 17.6 µM (inactive) in experiment [4]; 29.2 µM (inactive) in experiment [5]; 28.2 µM in experiment [6]. The GI50 in experiment [7] is 22.4 µM (inactive); in experiment [8] it was 16.8 µM (inactive); in experiment [9], 20.1 µM (inactive); in [10], 47.4 µM (inactive); in experiment [11], 25.1 µM (inactive); in [12] it was 22.4 µM (inactive). In addition, the values for the GI50 in experiment [13], in [14] and in [16] were > 100 µM (inactive), 19.5 µM (inactive) and 18.2 µM (inactive), respectively.

As for `COc1nc(C(=O)O)c(Cl)c(OC)c1Cl`, the GI50 in experiment [1], in experiment [2], in experiment [3], in experiment [4], in experiment [5] and in [7] was > 100 µM (inactive) in each case. Also, the GI50 in experiment [8], in [9], in [10], in experiment [11], in experiment [12] and in experiment [13] was > 100 µM (inactive) throughout. Also, the GI50 in experiment [14], in [15] and in experiment [16] was > 100 µM (inactive) in each case.

`CCOC(=O)C(=O)Nc1ccccc1OCC`: the GI50 is > 100 µM (inactive) in experiment [1]; > 100 µM (inactive) in experiment [2]; 92.9 µM (inactive) in [3]; > 100 µM (inactive) in experiment [4]; > 100 µM (inactive) in experiment [5]; > 100 µM (inactive) in experiment [7]. Further, the GI50 in [8], in experiment [9], in [10], in experiment [11], in experiment [12] and in [13] was > 100 µM (inactive) in each case. Moreover, the GI50 in experiment [14], in [15] and in experiment [16] was > 100 µM (inactive) throughout.

Regarding `NNC(=O)C(=O)NN=C(C(Cl)(Cl)CO)C(Cl)(Cl)CO`, the GI50 is 21.3 µM (inactive) in experiment [1]; 25.6 µM (inactive) in experiment [2]; 45.7 µM (inactive) in experiment [3]; 44.1 µM (inactive) in [4]; 22.6 µM (inactive) in experiment [5]; 25.7 µM in [6]. Moreover, the GI50 in experiment [7] is 48.1 µM (inactive); in experiment [8] it was 21.9 µM (inactive); in experiment [9] it was 36.4 µM (inactive); in experiment [10], > 100 µM (inactive); in experiment [11], > 100 µM (inactive); in experiment [12] it was 31 µM (inactive). Also, the GI50 in experiment [13] is 33.4 µM (inactive); in experiment [14], 20.1 µM (inactive); in [15] it was 27.4 µM (inactive); in experiment [16], 12.1 µM (inactive).

Turning to `FC(F)(F)c1nc(-c2ccccc2)oc1Sc1nnc(Sc2oc(-c3ccccc3)nc2C(F)(F)F)s1`, the GI50 was 22.7 µM (inactive) in experiment [1]; > 55.3 µM (inactive) in experiment [2]; > 100 µM (inactive) in experiment [3]; > 100 µM (inactive) in experiment [4]; 36.4 µM (inactive) in [5]; 25.3 µM in [6]. Moreover, the GI50 in experiment [7] was > 63.5 µM (inactive); in experiment [8], 21.1 µM (inactive); in experiment [9] it was 58.9 µM (inactive); in [10] it was > 100 µM (inactive); in experiment [11], 24.2 µM (inactive); in experiment [12], > 78.2 µM (inactive). For the same compound, the GI50 in experiment [13] was 29.4 µM (inactive); in experiment [14], 23.2 µM (inactive); in experiment [15], 30.5 µM (inactive); in experiment [16], 18.5 µM (inactive).

As for `COc1ccc(/C=C/C(=O)c2sc(NC(=S)NC(=O)c3ccccc3F)nc2C)cc1OC`, the GI50 in experiment [1] is > 100 µM (inactive); in experiment [2], 66.7 µM (inactive); in experiment [3] it was 37.3 µM (inactive); in experiment [4], > 100 µM (inactive); in experiment [5], > 100 µM (inactive); in experiment [6] it was > 100 µM. The GI50 in experiment [7] is > 100 µM (inactive); in experiment [8], 36.5 µM (inactive); in [9], > 100 µM (inactive); in experiment [10], > 100 µM (inactive); in experiment [11], > 100 µM (inactive); in experiment [12], > 100 µM (inactive). The GI50 in experiment [13] was 98.9 µM (inactive); in experiment [14], > 100 µM (inactive); in [15], 36.2 µM (inactive); in experiment [16], 21.5 µM (inactive).

On to `COC(=O)[C@@]12C3=NO[C@]1(C(=O)OC)C(O[Si](C)(C)C(C)(C)C)[C@@H](OC(C)=O)[C@@H](OC(C)=O)[C@@H]2[C@@H](OCc1ccccc1)CC3` (stereo partly specified), for which the GI50 was > 61.1 µM (inactive) in [1]; > 23.8 µM (inactive) in experiment [2]; > 19.9 µM (inactive) in experiment [3]; > 100 µM (inactive) in experiment [4]; > 30.5 µM (inactive) in experiment [5]; > 30.9 µM in experiment [6]. For the same compound, the GI50 is 8.81 µM (inactive) in experiment [7]; 3.06 µM (inactive) in experiment [8]; 5.79 µM (inactive) in experiment [9]; > 100 µM (inactive) in [10]; > 29 µM (inactive) in experiment [11]; > 100 µM (inactive) in [12]. Moreover, the GI50 in experiment [13] is 2.22 µM (inactive); in [14], > 100 µM (inactive); in experiment [15], 4.42 µM (inactive); in [16], 3.86 µM (inactive).

In the case of `COc1cc(/C=C/c2ccc(Br)cc2)cc(OC)c1OC`, the GI50 was 28.3 µM (inactive) in experiment [1]; 6.21 µM (inactive) in experiment [2]; 9.77 µM (inactive) in experiment [3]; 8.11 µM (inactive) in experiment [4]; 6.93 µM (inactive) in experiment [5]; 7 µM in experiment [6]. Further, the GI50 was 21.1 µM (inactive) in experiment [7]; 15.7 µM (inactive) in experiment [8]; 9.12 µM (inactive) in experiment [9]; 20.7 µM (inactive) in [10]; 23.6 µM (inactive) in experiment [11]; 7.6 µM (inactive) in experiment [12]. In addition, the GI50 in [13] was 12.1 µM (inactive); in experiment [14], 13.9 µM (inactive); in experiment [15], 3.99 µM (inactive); in experiment [16] it was 11.8 µM (inactive).

For the origin of these results see ChEMBL document CHEMBL1201862, “PubChem BioAssay data set” (2004).
